The values that follow come from patent EP4635959A1, “NOVEL CRYSTALLINE FORM OF MAGNESIUM-SERINATE AND METHOD FOR PRODUCING SAME” (Astrogen, Inc., priority 2022, dated 2024).

The test system of one series is primary mouse astrocytes. As to the kind of experiment: Cytoprotective effect on oxidative stress induced by DMNQ (MTT cell viability). It counts as cell-based. The following applies: for cell viability: pre-treated 6 hours with 1 mM, 2 mM, 5 mM, then DMNQ (30 µM) with compound for 16 hours, MTT, Fig. 8.
The nature of series [1]: Stability test under harsh condition (qNMR, maleic acid standard). It counts as physicochemical. As to the method: In order to confirm the stability of the crystalline form of the present invention depending on conditions, a stability test was conducted under harsh conditions.
The magnesium-serinate crystalline form prepared in Example 2 was stored in a solid state at 70 °C and in an aqueous solution having a concentration of 0.5 mg/mL at 25 °C (60.0 % relative humidity) for 21 days, respectively, and then maleic acid was set as a standard substance, and the stability (measurement of content and related materials) was confirmed through qNMR analysis.
For the qNMR analysis method, analysis conditions were established by measuring the spin-lattice relaxation time T1 of the nuclide ^1H of magnesium-serinate on the sample obtained through the preliminary stress test. The T1 value was set at 4.708 seconds, and the measurement waiting time (d1: delay time) and measurement time (at: acquisition time) were set based on this value. The measurement waiting time (d1) was set to 30 seconds, and the measurement time (at) was set to being equal to or greater than the T1 value.
For the ^1H-NMR measurement for qNMR analysis, JEOL's JNM-ECX400I (400 MHz) NMR equipment was used, and spectral width (sw) was set at 6,000 Hz to sufficiently reflect the frequency range from 0 ppm to 10 ppm.

Series [2] in a line: pH measurement of aqueous sample. It counts as physicochemical. The settings on record: 0.5 g of sample in water, final volume 10 mL. As to the method:
(§1) Moisture and pH evaluations were performed in the same manner as in Experimental Example 7, and the heavy metal test and the content test were performed in the same manner as in Example 1.
(§2) The crystalline form of the present application prepared in Example 1 and the amorphous form of AST-011 (Comparative Example 2) were comparatively evaluated for the following test items by the following methods, and the results are shown in Table 7 below. - Appearance evaluation: Visual observation - Moisture measurement: According to the moisture measurement method (Karl Fischer method) of the general test method of the 12th edition of the Korean Pharmacopoeia, measured by adding 0.5 g of the sample into a moisture meter (Mettler Toledo, V10-S, Switzerland). - Infrared spectrum measurement method (IR): Measurement was made with FT-IR equipment (PerkinElmer, Spectrum 2, USA) according to the ATR measurement method of the general test method of the 12th revision of the Korean Pharmacopoeia. - pH measurement: 0.5 g of the sample was added into a 10 mL volumetric flask, and water was added to a final volume of 10 mL, and measurement was made with a pH meter (Mettler Toledo, FP-20 Switzerland). - XRD and DSC analyses: The analyses were performed in the same way as in Experimental Examples 2 and 3.

Series [3] can be described thus: Evaluation of occurrence of polymorphic transition on storage (PXRD and DSC). It counts as physicochemical. The settings on record: for DSC Endothermic Temperature: (dec.). As to the method:
In order to confirm whether the polymorphic transition of the magnesium-serinate crystalline form of the present invention occurs over time, PXRD and DSC analyses were performed in the initial state and after 4 weeks to confirm whether or not the polymorphic transition occurred.
Specifically, the crystalline form prepared in Example 2 was added into a polyethylene bag, placed in a stability chamber under conditions of a temperature of 40 °C and a relative humidity of 75 %, and stored for 4 weeks. PXRD and DSC analyses were performed in substantially the same manner as in Experimental Examples 2 and 3.

A short description of series [4]: Moisture measurement (Karl Fischer method). It counts as physicochemical. The settings on record: 0.5 g of sample. As to the method:
as §1, §2

Series [5] can be described thus: Appearance evaluation on storage (visual observation). It counts as physicochemical. The following applies: storage for 3 months under the same conditions as AST-011.
Description: as §2, with “3. […]” for “3.”

The mark [6] stands for this setting: 25°C, Aqueous solution state (0.5 mg/mL, 60.0 % relative humidity), initial state.
The mark [7] stands for this setting: 70°C, Solid state, initial state.
[8] abbreviates: initial vs after 4 weeks at 40 °C, relative humidity 75 %.

Description for primary mouse astrocytes: A 1-day-old mouse brain was removed, the olfactory bulb was removed, and the meninges were peeled off. After collecting the resultant in a 50 mL tube including HBSS (Hank's balanced salt solution) and centrifuging at 250 × g for 1 minute, the supernatant was removed. 2 mL of trypsin/EDTA (0.5 %), 8 mL of HBSS buffer, and 0.2 mL of DNase were mixed and reacted in a 37 °C constant temperature water bath for 30 minutes. After adding 18 mL of the culture medium and 2 mL of trypsin/EDTA thereto and pipetting 10 times, the resultant was filtered using a 40 µm cell strainer. Then, the supernatant was removed after centrifugation at 800 × g for 2 minutes. After adding 5 mL of the culture solution thereto, the number of cells was confirmed using a hemocytometer and the cells were cultured to obtain primary mouse astrocytes.
After inoculating cells (primary astrocytes, 1 × 10^5 cells) per well in a 96-well plate and culturing at 5 % CO2 and 37 °C for 24 hours to obtain a cell monolayer, the composition was diluted with a cell inoculation medium and the diluted composition each at a concentration of 0 mM, 1 mM, 2 mM, and 5 mM was inoculated at 100 µL/well, and then cultured in a 5 % CO2 and 37 °C incubator for 6 hours. […] Then, after removing the culture medium, 0.5 mg/mL of MTT solution was added to each well in an amount of 100 µL and reacted in a 5 % CO2 and 37 °C incubator for 2 hours. After completely removing the MTT solution and drying the culture plate, the formazan crystals formed in the cells were dissolved with DMSO, and the absorbance was measured at 590 nm with an ELISA plate reader to evaluate cell viability and drug efficacy.

Regarding `N[C@@H](CO)C(=O)O` [Comparative Example 1, L-serine], the cell viability entry with primary mouse astrocytes is recorded as “excellent”.

Regarding `N[C@@H](CO)C(=O)[O-].N[C@@H](CO)C(=O)[O-].[Mg+2]` [Crystalline Form of Present Application, magnesium-di-(2S)-2-amino-3-hydroxypropanoate], in the series with primary mouse astrocytes, the cell viability result is “excellent”. Besides, the “Purity of magnesium-serinate (%)” value in series [1] (25°C, Aqueous solution state (0.5 mg/mL, 60.0 % relative humidity), 9 days) is listed as 100.07%; in series [1] (setting [6]) it was 100.12%; in series [1] (70°C, Solid state, 9 days), 100.15%; in series [1] (setting [7]) it was 100.12%. For the same compound, the “Concentration of Total Related Materials (%)” value in series [1] (25°C, Aqueous solution state (0.5 mg/mL, 60.0 % relative humidity), 21 days) was 0.00%; in series [1] (setting [6]), 0.00%; in series [1] (70°C, Solid state, 21 days), 0.00%; in series [1] (setting [7]) it was 0.00%. This compound had a pH in series [2] of 10.3. Also, the “DSC Endothermic Temperature” value in series [3] (after 4 weeks at 40 °C and relative humidity of 75 %, polyethylene bag) was 282.5 °C (dec.); in series [3] (initial) it was 283.0 °C (dec.). The “Result of Comparative Analysis” value in series [3] (setting [8]) is given as “no occurrence of polymorphic transition”. Besides, the “Result of PXRD Analysis” value in series [3] (setting [8]) is recorded as “same crystalline form”. Moreover, the “Moisture Content” value in series [4] is on record as 0.2%; in series [4] (listed as Example 2), 0.1%. In addition, the “Appearance (stability)” value in series [5] was “Fig. 7(b) light gray or white powder (stability: no change after 3 months)”.

As to `COC1=C(OC)C(=O)c2ccccc2C1=O` [DMNQ, 1,4-naphthoquinone], the cytotoxicity at 30 µM in the series with primary mouse astrocytes (Mus musculus, Astrocyte, 16 h, read-out: cells killed by oxidative stress) is about 50%.
